CCOc1ccccc1C(N)=O
solubility (mole fraction)
Conditions | 288.15 K | 293.15 K | 298.15 K | 303.15 K | 308.15 K | 313.15 K | 318.15 K | 323.15 K
in acetonitrile | 0.00524 | 0.0075 | 0.0101 | 0.0132 | 0.0176 | 0.0231 | 0.0302 | 0.0398
in ethanol | 0.011 | 0.0137 | 0.0171 | 0.0211 | 0.0265 | 0.0327 | 0.0402 | 0.0486
in ethyl acetate | 0.00336 | 0.00459 | 0.00639 | 0.00835 | 0.0112 | 0.0147 | 0.0196 | 0.0251
in isobutanol | 0.00816 | 0.00984 | 0.0126 | 0.0162 | 0.0208 | 0.0273 | 0.0354 | 0.0454
in methanol | 0.0154 | 0.018 | 0.0225 | 0.027 | 0.0328 | 0.0402 | 0.0492 | 0.0597
in n-propanol | 0.00832 | 0.0113 | 0.0142 | 0.0179 | 0.0227 | 0.0301 | 0.0389 | 0.0502

Source: BigSolDB 2.1
